Assay results from patent publication US6552060B1, “Asymmetric disulfides and methods of using same” (Prolx Pharmaceuticals, Inc., priority 1997, dated 2003).
pIC50: −log10 of the molar value.

What was measured:
TR/Trx = target: T1, TR/Trx (Homo sapiens, UniProt Q16881); assay: Thioredoxin dependent reduction of insulin by human thioredoxin reductase and NADPH (IC50 TR/Trx, 96 well); type: biochemical; conditions: for Disulfide inhibition of TR/Trx (IC50 TR/Trx): Table 4
T1 sequence (Q16881 1-499 isoform Q16881-5): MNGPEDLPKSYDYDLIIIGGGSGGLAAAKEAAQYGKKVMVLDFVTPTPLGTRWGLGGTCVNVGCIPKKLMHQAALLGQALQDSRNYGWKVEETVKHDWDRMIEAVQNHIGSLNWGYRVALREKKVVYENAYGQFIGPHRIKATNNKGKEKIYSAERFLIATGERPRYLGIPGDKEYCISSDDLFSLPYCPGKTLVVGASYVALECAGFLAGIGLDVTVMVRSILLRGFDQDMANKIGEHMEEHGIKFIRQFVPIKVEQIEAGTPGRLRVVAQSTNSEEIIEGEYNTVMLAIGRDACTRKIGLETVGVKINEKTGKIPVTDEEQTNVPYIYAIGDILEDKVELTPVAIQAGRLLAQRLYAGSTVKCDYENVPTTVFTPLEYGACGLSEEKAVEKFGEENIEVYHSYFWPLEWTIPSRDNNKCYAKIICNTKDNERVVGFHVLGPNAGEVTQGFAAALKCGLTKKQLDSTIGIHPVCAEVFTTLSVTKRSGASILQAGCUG
Excerpt: When referring to the particular system being analyzed IC50 is typically followed by an abbreviation referring to that system (i.e., IC50 TR/Trx for the above described thioredoxin redox system which is comprised of thioredoxin reductase and thioredoxin).
A second plate was used for the assessment of biological activity or as a biological screen. Aliquots of disulfides dissolved in DMSO, were be transferred into 96 well plates. The assay to assess their ability to inhibit thioredoxin reductase measures the thioredoxin dependent reduction of insulin by human thioredoxin reductase and NADPH. The effects of the disulfides on the reduction of Trx by TR were measured spectrophotometrically by following the reduction of NADPH at 339 nm with insulin as the final electron acceptor in a buffered mixture of TR, Trx, NADPH and insulin.

[1] = test system: EMT6 mouse mammary tumor cells; assay: Cytotoxicity against EMT6 cells in culture (MTT); conditions: read-out: Disulfide Cytotoxicity (IC50), Table 5, 48 h exposure
in vitro = conditions: mouse
HL60 cells = assay: Induction of apoptosis in HL60 cells; type: cell-based, human; conditions: within 8 h of exposure, same concentration
thioredoxin = target: T2, thioredoxin (Homo sapiens, UniProt P10599); assay: Direct reaction between thioredoxin and disulfides, release of 2-mercaptoimidazole at 252 nm; type: biochemical
T2 construct: made in house; host or cells: E. coli
T2 sequence (P10599 1-105): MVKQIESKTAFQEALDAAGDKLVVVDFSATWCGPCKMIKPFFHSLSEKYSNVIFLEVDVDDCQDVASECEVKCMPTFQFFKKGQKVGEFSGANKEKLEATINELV
Method: The effects of the assymetric disulfides of Table I on the reduction of thioredoxin and C73S by thioredoxin reductase was measured spectrophotometrically by following the reduction of NADPH at 339 nm. […] In some studies the disulfides at 3.5 μM were preincubated for up to 24 hr at room temperature in air with 0.7 μM thioredoxin or C73S in 100 μM HEPES buffer, pH 7.6, and 5 mM EDTA, before measuring the reduction of the thioredoxin or C73S by thioredoxin reductase with 1 mg/ml bovine insulin as the final electron acceptor. The ability of the disulfides to act as substrates for glutathione reductase was measured by following the reduction of NADPH using an incubation mixture containing 0.15 μg/ml glutathione reductase, 140 μM NADPH, 100 mM HEPES buffer, pH 7.6, 5 mM EDTA and the disulfides at 500 μM. The ability of the disulfides to act as inhibitors of glutathione reductase was measured using oxidized glutathione, 50 μM, as the final electron acceptor. In both cases the reaction was initiated by the addition of NADPH. Thioredoxin or C32S/C35S, 2 μM, in 0.1 M sodium phosphate buffer, pH 7.4, was reacted with the disulfides at a concentration of 200 μM at room temperature. This direct reaction between thioredoxin and the disulfides was followed spectrophotometrically as the increase in absorbance at 252 nm due to release of 2-mercaptoimidazole. Initial reaction rates were measured in triplicate.
Due to the fact that the disulfides inhibited thioredoxin-dependent cell growth at concentrations below those required to inhibit thioredoxin reductase, a direct effect of the disulfides on thioredoxin was looked for. The initial reaction between the disulfides and thioredoxin was measured spectrophotometrically (FIGS. 2A and 2B). […] This is the order of reactivity which be predicted from the steric and electronic nature of the disulfides thioalkylating groups.

[2] = target: T3, Human placental thioredoxin reductase (Homo sapiens, UniProt Q16881); assay: NADPH oxidation by thioredoxin reductase with the disulfide as substrate, or with thioredoxin and insulin as final electron acceptor and the disulfide as inhibitor; type: biochemical; conditions: behaviour towards thioredoxin reductase: substrate, inhibitor or non-reactive
T3 sequence (Q16881 1-499 isoform Q16881-5): T1 sequence (Q16881 1-499 isoform Q16881-5)
Method: The thioredoxin was stored at −20° C. with 5 mM dithiothreitol which was removed before use with a desalting column (PD10, Pharmacia, Uppsala, Sweden).
Asymmetrical 2-imidazolyl disulfides which were used as a basis for further development and identified below in Table 1. In Table I, NADPH oxidation by thioredoxin reductase was measured spectrophotometrically as described with either the disulfide as the electron acceptor (substrate) or with thioredoxin and insulin as the final electron acceptor and the disulfide as inhibitors. The reactions were initiated by the addition of NADPH. Km and Ki values were calculated from Lineweaver-Burk plots of the data.
The compounds of Table 1 were synthesized by a method described previously and recrystallized prior to use. Stock solutions of the disulfides were prepared at 10 mM in ethanol and diluted in aqueous media just prior to use. N-ethylmaleimide (NEM), diamide, and DTT were obtained from Sigma Chemical Co. (St. Louis, Mo.). All other chemicals used were of reagent grade. […]

SMILES | pIC50 [1] | other results
CCC(C)SSCc1ccccc1 (stereo not shown) [Compound F-19] | 3.97 | Disulfide inhibition of TR/Trx (IC50 TR/Trx) (TR/Trx): >189 µg/mL
CCC(C)SSC1=NCCS1 (stereo not shown) [Compound F-25] | 4.51 | 
CC(O)C(C)SSc1ncc[nH]1 (stereo not shown) [Compound M-1] | 4.47 | 
CC(O)C(C)SSc1nccn1C (stereo not shown) [Compound M-2] | ≤ 3.74 | 
CC(O)C(C)SSc1nc2ccccc2[nH]1 (stereo not shown) [Compound M-8] | ≤ 3.74 | 
ClCCCSSc1ncnc2[nH]cnc12 [Compound H-7] | 4.44 | 
ClCCCSSCc1ccccc1 [Compound H-19] | 3.97 | 
Cc1nnc(SSC(C)C)s1 [Compound E-3] | < 3.74 | Disulfide inhibition of TR/Trx (IC50 TR/Trx) (TR/Trx): 100 µg/mL
Cc1ccc2[nH]c(SSC(C)C)nc2c1 [Compound E-9] | < 3.74 | 
CC(C)SSc1ncc[nH]1 [Compound E-1] | 4.62 | Disulfide inhibition of TR/Trx (IC50 TR/Trx) (TR/Trx): 7 µg/mL
CCC(C)SSc1nnc(S)s1 (stereo not shown) [Compound F-4] |  | IC50 at 48 h (in vitro): 36 µM; IC50 (TR/Trx; Table 3, read-out: IC50 TR/Trx (converted)): 117 µM
CC(O)C(C)SSc1nc2cc([N+](=O)[O-])ccc2[nH]1 (stereo not shown) [Compound M-10] | 4.47 | 
CCSSc1nccn1C [Compound A-2] | 4.82 | Disulfide inhibition of TR/Trx (IC50 TR/Trx) (TR/Trx): 80 µg/mL
COc1cccc(CSSC(C)C)c1 [Compound E-20] | < 3.74 | 
CC(C)CSSc1ncc[nH]1 [Compound G-1] | 4.55 | Disulfide inhibition of TR/Trx (IC50 TR/Trx) (TR/Trx): 8 µg/mL
Cc1ccnc(SSC(C)C(C)O)n1 (stereo not shown) [Compound M-24] | ≤ 3.74 | 
CCC(C)SSc1nccc(C)n1 (stereo not shown) [Compound F-24] | < 3.74 | Disulfide inhibition of TR/Trx (IC50 TR/Trx) (TR/Trx): 83 µg/mL
CCC(C)SSCC(C)C(=O)N1CCCC1C(=O)O (stereo not shown) [Compound F-28] | < 3.74 | 
O=C(O)CCSSc1ncccc1C(=O)O [Compound N-23] | 4.04 | 
CC(C)(C)SSc1ncc[nH]1 [IX-2, t-butyl 2-imidazolyl disulfide] |  | apoptosis of HL60 cells (HL60 cells): does not cause apoptosis; rate of thiol/disulfide exchange reaction with thioredoxin relative to III-2 (thioredoxin): three logs slower; initial rate for reaction between thioredoxin and disulfide (thioredoxin; thioredoxin 2 μM, disulfide 200 μM, pH 7.4, room temperature, unit not given, in M/s): 3.0×10^−9; Type [2]: non-reactive
CC(C)SSc1ccccc1 [Compound E-13] | < 3.74 | 
O=C(O)c1cccnc1SSCCCCl [Compound H-23] | 4.16 | 
CC(O)C(C)SSCc1ccccc1 (stereo not shown) [Compound M-19] | 4.04 | 
CC(C)SSc1nc2ccccc2[nH]1 [Compound E-8] | 4.18 | 
